Laboratory results reported in patent US10067120B2, “Use of acetylated tubulin as a biomarker of drug response to furazanobenzimidazoles” (Basilea Pharmaceutica AG, priority 2011, dated 2018).

Experiments:
Type in all cases: cell-based, human
[1] = tested on: SKBR3 breast cancer cells; test: Immunofluorescent staining of microtubules (anti-alpha tubulin); conditions: 24 hours, 50 nM BAL27862
Description: (§1) A549 human non-small cell lung cancer (NSCLC, ATCC reference number CCL-185) cells, HeLa cervical cancer cells (ATCC reference number CCL-2) and SKBR3 breast carcinoma cells (ATCC reference number HTB-30) were seeded at densities of 50% on round microscope coverslips and cultured for 24 hours in RPMI-1640 containing 10% FCS (also referred to as FBS) at 37° C., 5% CO2. Compounds to be tested were dissolved in DMSO. The cell culture medium was replaced with medium containing the diluted compound(s) (paclitaxel, vinblastine, colchicine and nocodazole were purchased from Sigma-Aldrich) or vehicle. After treatment for the times indicated in the Brief Description of the Figures, coverslips were washed and cells were fixed in methanol/acetone (1:1) for 5 minutes at room temperature and subsequently incubated in blocking buffer (0.5% BSA and 0.1% TX-100 in PBS) for 30 minutes at room temperature. Specimens were then incubated with anti-alpha tubulin antibody (Sigma, 1:2000) for 1 hour at room temperature in blocking buffer. After several washing steps cells were incubated with AlexaFluor-488 goat-anti-mouse IgG (Molecular Probes, 1:3000) for 1 hour at room temperature followed by several washing steps with blocking buffer. Specimens were then mounted with ProLong Gold antifade (Molecular Probes) sealed with nail polish and examined with a Leica immunofluorescence microscope. Images were captured with a cooled CCD-camera and processed by ImageJ software.

[2] = tested on: HeLa cervical cancer cells; test: as above; conditions: 24 hours, 50 nM BAL27862
Description: as §1

[3] = tested on: A549 NSCLC cells; test: as above; conditions: for Microtubule phenotype of mitotic or G2/M arrested cells: 24 hours, 50 nM BAL27862, 80 nM Compound B, 20 nM Compound C
Description: as §1

[4] = tested on: SKOV3; test: Crystal Violet proliferation assay, BAL27862-resistant versus parental SKOV3; conditions: for Resistance factor (ratio IC50 BAL27862-resistant cell line variant versus IC50 parental cell line): 72 hours, Crystal Violet
Description: (§2) BAL27862-resistant sublines of human non-small cell lung cancer (H460 ATCC reference HTB-177; A549 ATCC reference CCL-185), ovarian cancer (SKOV3 ATCC reference HTB-77) and T-cell leukemia (Jurkat ATCC reference TIB-152) cell lines were generated by long-term selection in complete cell culture medium (RPMI-1640 containing 10% FBS; Sigma-Aldrich) by increasing BAL27862 concentrations in a stepwise fashion. […] The resistance factors were determined for the adherent cell lines H460, A549 and SKOV3 by measuring proliferation using the Crystal Violet assay, whereas for the suspension Jurkat cell line cell death was measured using FACS. The resistant sub lines were expanded at the highest tolerated BAL27862 concentration and subsequently frozen and stored in liquid nitrogen.
(§3) A549 (2000 cells/well), H460 (1000 cells/well) and SKOV3 (2000 cells/well) cells were seeded in 96 well plates. […] After medium was removed, cells were fixed and stained by adding 50 μl Crystal Violet stain (0.2% Crystal Violet in 50% Methanol) per well. Plates were incubated for 1 hour at room temperature. Subsequently the stain was decanted and plates were washed 4 times with double-distilled water. Plates were air-dried for several hours. Stain was dissolved by adding 100 μl buffer (0.1 M Tris pH 7.5, 0.2% SDS, 20% Ethanol) per well and shaking the plates. Absorbance at 590 nm was measured using a SpectraMax M2e plate reader (Molecular Devices).
(§4) Antiproliferative IC50 and cell death EC50 values were calculated from concentration response curves using GraphPad Prism software. Resistance factors were calculated as a ratio of the IC50 or EC50 in the resistant line variant versus the IC50 or EC50 in the parental line.

[5] = tested on: Jurkat; test: FACS cell death assay, BAL27862-resistant versus parental Jurkat cells expressing GFP
Description: as §2, with “The resistant sub lines were expanded at the highest tolerated BAL27862 concentration and subsequently frozen and stored in liquid nitrogen.” left out
Jurkat cells stably expressing GFP (green fluorescence protein) were incubated with increasing BAL27862 concentrations in culture medium for 72 hours and then analyzed by FACS (excitation at 488 nm, emission at 525 nm). Dying or dead cells, showing a decreased fluorescence activity in comparison to living cells, were quantified (Green fluorescent protein as a novel tool to measure apoptosis and necrosis. Strebel et al, 2001, Cytometry 43(2): 126-133).
as §4

[6] = tested on: H460; test: Crystal Violet proliferation assay, BAL27862-resistant versus parental H460; conditions: for Resistance factor (ratio IC50 BAL27862-resistant cell line variant versus IC50 parental cell line): 72 hours, Crystal Violet
Description: as §2, §3, §4

[7] = tested on: A549; test: Crystal Violet proliferation assay, BAL27862-resistant versus parental A549; conditions: for Resistance factor (ratio IC50 BAL27862-resistant cell line variant versus IC50 parental cell line): 72 hours, Crystal Violet
Description: as §2, §3, §4

[8] = tested on: BAL27862-resistant cells; test: Response of BAL27862-resistant lines to other microtubule agents (all lines tested); conditions: all lines tested (Table 1)
Description: as §2
A549 (2000 cells/well), H460 (1000 cells/well) and SKOV3 (2000 cells/well) cells were seeded in 96 well plates. […] After medium was removed, cells were fixed and stained by adding 50 μl Crystal Violet stain (0.2% Crystal Violet in 50% Methanol) per well. […] Absorbance at 590 nm was measured using a SpectraMax M2e plate reader (Molecular Devices).
as §4

SMILES	Microtubule phenotype of mitotic or G2/M arrested cells [3]	Resistance factor (ratio IC50 BAL27862-resistant cell line variant versus IC50 parental cell line) ([4]; SKOV3 resistant 1)	Resistance factor (ratio IC50 BAL27862-resistant cell line variant versus IC50 parental cell line) ([4]; SKOV3 resistant 2)	Resistance factor (ratio IC50 BAL27862-resistant cell line variant versus IC50 parental cell line) [6]	Resistance factor (ratio IC50 BAL27862-resistant cell line variant versus IC50 parental cell line) [7]	further results
N#CCCNc1nonc1-c1nc2ccccc2n1CC(=O)c1ccc(N)cc1 [BAL27862, 3-(4-{1-[2-(4-Amino-phenyl)-2-oxo-ethyl]-1H-benzoimidazol-2-yl}-furazan-3-ylamino)-propionitrile]	dot-like structures	7.6	11.6	5.3	3.0	Microtubule phenotype of mitotic or G2/M arrested cells [1]: dot-like structures; Microtubule phenotype of mitotic or G2/M arrested cells [2]: dot-like structures; Microtubule phenotype on combination treatment ([3]; 24 hours vinblastine, colchicine, paclitaxel or nocodazole, BAL27862 added for the last 4 hours): disruption of the microtubule structures; Resistance factor versus parental line (based on IC50) ([4]; SKOV3 resistant 1): 7.6 fold; Resistance factor versus parental line (based on IC50) ([4]; SKOV3 resistant 2): 11.6 fold; Resistance factor versus parental line (based on EC50) [5]: 22.5 fold; Resistance factor (ratio EC50 BAL27862-resistant cell line variant versus EC50 parental cell line) ([5]; 72 hours, cell death by FACS): 22.5; Resistance factor versus parental line (based on IC50) [6]: 5.3 fold; Resistance factor versus parental line (based on IC50) [7]: 3.0 fold
COc1cc2c(c(OC)c1OC)-c1ccc(OC)c(=O)cc1[C@@H](NC(C)=O)CC2 [Colchicine, colchicine]	–	2.0	2.8	1.6	0.9	–
Nc1ccc(C(=O)Cn2c(-c3nonc3N)nc3ccccc32)cc1 [Compound B, 2-[2-(4-Amino-furazan-3-yl)-benzoimidazol-1-yl]-1-(4-amino-phenyl)-ethanone]	dot-like structures	–	–	–	–	–
N#CCCNc1nonc1-c1nc2ccccc2n1CC(=O)c1ccc(N)nc1 [Compound C, 3-(4-{1-[2-(6-Amino-pyridin-3-yl)-2-oxo-ethyl]-1H-benzoimidazol-2-yl}-furazan-3-ylamino)-propionitrile]	dot-like structures	–	–	–	–	–
COC(=O)Nc1nc2ccc(C(=O)c3cccs3)cc2[nH]1 [Nocodazole, nocodazole]	–	3.6	3.9	1.3	1.6	–
CC(=O)O[C@H]1C(=O)[C@@]2(C)[C@H]([C@H](OC(=O)c3ccccc3)[C@]3(O)C[C@H](OC(=O)[C@H](O)[C@@H](NC(=O)c4ccccc4)c4ccccc4)C(C)=C1C3(C)C)[C@]1(OC(C)=O)CO[C@@H]1C[C@@H]2O [Paclitaxel, paclitaxel]	–	0.4	0.5	0.3	0.06	Sensitivity of BAL27862-resistant lines compared to parental lines [8]: increased sensitivity
CC[C@]1(O)C[C@@H]2CN(CCc3c([nH]c4ccccc34)[C@@](C(=O)OC)(c3cc4c(cc3OC)N(C)[C@H]3[C@@](O)(C(=O)OC)[C@H](OC(C)=O)[C@]5(CC)C=CCN6CC[C@]43[C@@H]65)C2)C1 [Vinblastine, vinblastine]	–	15.7	–	4.6	2.3	–
